{"source": "patent US20190010217A1", "about": "“MOBILIZING HIV-INFECTED CELLS FROM LYMPHATIC RESERVOIRS” (INDIANA UNIVERSITY RESEARCH & TECHNOLOGY CORPORATION, priority 2016, published 2019)", "key": {"GPCRs-Gαi signaling": {"test_system": "GPCRs-Gαi signaling", "conditions": "pretreatment of lymphocytes with PTX; cited from earlier work"}, "S1P1": {"target": "S1P1 (Homo sapiens, UniProt P21453)", "sequence (P21453 whole entry)": "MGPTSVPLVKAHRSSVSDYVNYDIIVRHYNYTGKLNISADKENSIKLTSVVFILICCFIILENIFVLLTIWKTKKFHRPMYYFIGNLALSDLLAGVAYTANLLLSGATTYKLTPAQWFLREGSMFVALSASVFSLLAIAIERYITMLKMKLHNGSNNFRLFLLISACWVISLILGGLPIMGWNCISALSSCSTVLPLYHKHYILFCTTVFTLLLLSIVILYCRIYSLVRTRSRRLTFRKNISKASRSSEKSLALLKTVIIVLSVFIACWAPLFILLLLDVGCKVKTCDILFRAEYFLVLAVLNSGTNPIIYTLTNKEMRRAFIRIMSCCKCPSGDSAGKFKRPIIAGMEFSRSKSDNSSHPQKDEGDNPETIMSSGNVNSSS", "experiment": "Beta arrestin-TANGO assay (luciferase reporter) in HTLA cells transfected with Nef", "excerpt": "The role of beta arrestin in GPCR regulation, including S1P1 allows for the design and use of an S1P1 Arrestin-Tango expressing cell line (TANGO construct commercially available from AddGene) to test S1P1 signaling and its inhibitors. […] Upon activation of the S1P1 by an agonist, β-arrestin is recruited to the C-terminus of the receptor. This is followed by cleavage of the GPCR fusion protein at the TEV protease site. Cleavage results in the release of the tTA transcription factor, which after transport to the nucleus, activates transcription of the luciferase reporter gene. Thus, potential SNP1 inhibitors can be screened using the S1P1 Arresting Tango assay looking for an increase of luciferase activity indicating an increase in S1P1 signalling.\nThe role of beta arrestin in GPCR regulation, including S1P1, allows for the design and use of an S1P1 Arrestin-Tango expressing cell line (TANGO construct commercially available from AddGene) to test S1P1 signaling and its inhibitors. […] Upon activation of the S1P1 by an agonist, β-arrestin is recruited to the C-terminus of the receptor. This is followed by cleavage of the GPCR fusion protein at the TEV protease site. Cleavage results in the release of the tTA transcription factor, which after transport to the nucleus, activates transcription of the luciferase reporter gene.\nSpecifically, HTLA cells were transfected with NEF wt and analyzed for luciferase activity in response to increasing concentrations of sphingosine-phosphate (S1P)."}, "Nef-ER T1 cells": {"test_system": "Nef-ER T1 cells", "experiment": "Adhesion of Nef-ER T cells to endothelial cells (HUVEC co-culture, FACS)", "format": "cell-based", "conditions": "HIV-Nef expressing T cells (Nef-ER T1) on HUVECs; 10 μM atorvastatin pre-incubation at least 12 hours; FIG. 5", "description": "Nef was activated in Nef-ER cells by culturing them with RPMI1640+10% FBS (fetal bovine serum) and 1 μM 4-hydrotamoxifen for at least 6 hours or overnight at 37° C. For inhibitor use, the Nef-ER cells were pre-incubated for at least 12 hours with 10 μM atorvastatin. Other inhibitors may require shorter pre-incubations.\nApproximately 100K HUVECS were seeded per well in a collagen-coated 6-well plate. Cells were incubated overnight in EGM2(LONZA) medium. Nef-ER cells were stained using 5 μM Calcein AM (Ref C3100MP, Fischer Scientific) in 1 mL of staining solution and incubated for 30 minutes at 37° C. The cells were centrifuged at 300 g for 5 min, and the cell pellet was resuspended in 2 mL RPMI+10% FBS. Cells were centrifuged at 300 g for 5 min and the supernatant was removed.\nAfter staining, 1 μL of 1 mM 4-Hydrotamoxifen per ml of EGM2(LONZA) medium was added for final concentration of 1 μM. Stained T-cells were resuspended in EGM2 media at final concentration of 250,000 cells per ml. 250,000 stained T-cells were added to each well of 6-well plate of HUVECs for co-culture (with or without 10 μM atorvastatin to maintain inhibition) and incubated for 60 minutes. The plate was gently shaken one time after 30 minutes. Cells were washed very gently 3 times with PBS (phosphate buffered saline). Cells were then trypsinized and analyzed by fluorescence activated cell sorting (FACS)."}}, "note": "Entries after “also recorded” stand apart in the source; their conditions may differ.", "data": [{"compound": "Pertussis toxin", "values": [{"measurement": "retention of T cells in lymph nodes by fingolimod", "setting": "GPCRs-Gαi signaling", "value": "prevented the retention of T cells in lymph nodes"}]}, {"compound": "sphingosine-phosphate [S1P]", "values": [{"measurement": "β-arrestin recruitment (luciferase activity) in response to increasing concentrations", "setting": "S1P1; HTLA cells transfected with NEF wt, increasing concentrations of S1P, FIG. 7", "value": "more activation"}, {"measurement": "β-arrestin activation (luciferase activity)", "setting": "S1P1; HTLA cells transfected with Nef, treated with 1mM S1P and/or FTY720, FIG. 8", "value": "significantly more activation; also recorded: increase in β-arrestin activation"}]}, {"compound": "CC(C)c1c(C(=O)Nc2ccccc2)c(-c2ccccc2)c(-c2ccc(F)cc2)n1CC[C@@H](O)C[C@@H](O)CC(=O)O", "note": "[statin, atorvastatin]", "values": [{"measurement": "T cell adhesion", "setting": "Nef-ER T1 cells", "value": "reduces T cell adhesion"}]}]}
